One experiment has as its system HTT mRNA. Nature of the experiment: RT-qPCR splicing assay, HTT canonical junction (CJ) and alternative junction (AJ) mRNA. The experiment is classed as cell-based, human. The following applies: Homo sapiens; for AC50: increase in HTT alternative junction (AJ) mRNA, read-out: HTT AJ AC50. An outline of the steps: (§1)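 A673 or K562 cells were treated for 24 h at 37 °C with an 11-point 3-fold compound dilution series (top final concentration 10 uM, DMSO ≤0.25%). After lysis, one-step TaqMan RT-qPCR quantified junction transcripts, normalized to PPIA for A673 or to GAPDH/GUSB for K562.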
(In qPCR the cycle at which signal appears reflects the starting amount.)

The test system of another experiment is MYB mRNA. Nature of the experiment: RT-qPCR splicing assay, MYB canonical junction (CJ) and alternative junction (AJ) mRNA. Type of experiment: cell-based, human. The following applies: Homo sapiens; for AC50: increase in MYB alternative junction (AJ) mRNA, read-out: MYB AJ AC50. The method, boiled down: as §1
Setting [1] is: decrease in HTT canonical junction (CJ) mRNA, RT-qPCR, read-out: HTT CJ IC50.
Setting [2] is: Table 5 panel, canonical junction qPCR, compound concentration having 50% response in CJ decrease, read-out: HTT IC50 (decrease in CJ mRNA levels).
Setting [3] is: Table 5 panel, canonical junction qPCR, compound concentration having 50% response in CJ decrease, read-out: MYB IC50 (decrease in CJ mRNA levels).
Setting [4] is: decrease in MYB canonical junction (CJ) mRNA, RT-qPCR, read-out: MYB CJ IC50.

The values that follow come from patent US20250332173A1, “COMPOUNDS AND METHODS FOR MODULATING NUCLEIC ACID SPLICING” (REMIX THERAPEUTICS INC., priority 2021, published 2025).

pIC50: −log10 of the molar value. Read-outs that look alike come from different tables or passages of the source.

As to `Cc1cn2nc(-c3ccc4c(=O)n(C5CCNCC5)ccc4c3)cc(C(=O)N(C)C)c2n1` [Compound 524, N, N, 2-trimethyl-6-[1-oxo-2-(4-piperidyl)-6-isoquinolyl]imidazo[1,2-b]pyridazine-8-carboxamide], the pIC50 with HTT mRNA (setting [1]), in the experiment with HTT mRNA (setting [2]), with MYB mRNA (setting [3]) and in the experiment with MYB mRNA (setting [4]) was under 5.00 in each case. Besides, the AC50 in the experiment with HTT mRNA (RT-qPCR) and with MYB mRNA (RT-qPCR) was over 10000 nM throughout.
As to `Cc1cn2nc(-c3ccc4c(=O)n(C5CCNCC5)ccc4c3)cc(CO)c2n1` [Compound 525, 6-[8-(hydroxymethyl)-2-methyl-imidazo[1,2-b]pyridazin-6-yl]-2-(4-piperidyl) isoquinolin-1-one], the pIC50 in the experiment with HTT mRNA (setting [1]) is 6.00 to 7.00; with HTT mRNA (setting [2]) it was over 7.00; with MYB mRNA (setting [3]), 6.00 to 7.00; with MYB mRNA (setting [4]), over 7.00. Also, the half-maximal activity concentration (AC50) in the experiment on HTT mRNA (RT-qPCR) was under 100 nM; in the experiment on MYB mRNA (RT-qPCR), 100 to 1000 nM.
As for `Cc1cn2nc(-c3ccc4c(=O)n(C5CCNCC5)ccc4c3)cc(OCc3ccccc3)c2n1` [Compound 526, 6-(8-benzyloxy-2-methyl-imidazo[1,2-b]pyridazin-6-yl)-2-(4-piperidyl) isoquinolin-1-one], the negative logarithm of the IC50 (pIC50) with HTT mRNA (setting [1]), in the experiment on HTT mRNA (setting [2]), with MYB mRNA (setting [3]) and with MYB mRNA (setting [4]) was 6.00 to 7.00 throughout. Further, the AC50 in the experiment with HTT mRNA (RT-qPCR) and in the experiment on MYB mRNA (RT-qPCR) was 100 to 1000 nM throughout.
`COC(=O)Cc1cc(-c2ccc3c(=O)n(C4CCNCC4)ccc3c2)nn2cc(C)nc12` [Compound 527]: the pIC50 with HTT mRNA (setting [1]), in the experiment on HTT mRNA (setting [2]), with MYB mRNA (setting [3]) and in the experiment on MYB mRNA (setting [4]) was 6.00 to 7.00 throughout. Besides, the concentration at half-maximal activity (AC50) with HTT mRNA (RT-qPCR) and in the experiment with MYB mRNA (RT-qPCR) was 100 to 1000 nM throughout.
In the case of `Cc1cn2nc(-c3ccc4c(=O)n(C5CCNCC5)ccc4c3)cc(CC(N)=O)c2n1` [Compound 528, 2-(2-methyl-6-(1-oxo-2-(piperidin-4-yl)-1,2-dihydroisoquinolin-6-yl)imidazo[1,2-b]pyridazin-8-yl) acetamide], the pIC50 in the experiment on HTT mRNA (setting [1]) is 5.00 to 6.00; in the experiment with HTT mRNA (setting [2]), 6.00 to 7.00; in the experiment on MYB mRNA (setting [3]), 5.00 to 6.00; in the experiment on MYB mRNA (setting [4]) it was 5.00 to 6.00. The figures for the AC50 in the experiment on HTT mRNA (RT-qPCR) and in the experiment with MYB mRNA (RT-qPCR) were 100 to 1000 nM and 1000 to 10000 nM, respectively.
Turning to `CCOC(=O)c1cc(-c2ccc3c(=O)n(C4CCNCC4)ccc3c2)nn2cc(C)nc12` [Compound 529, ethyl 2-methyl-6-[1-oxo-2-(4-piperidyl)-6-isoquinolyl]imidazo[1,2-b]pyridazine-8-carboxylate], the pIC50 in the experiment with HTT mRNA (setting [1]) is 5.00 to 6.00; in the experiment with HTT mRNA (setting [2]), 6.00 to 7.00; in the experiment with MYB mRNA (setting [3]), 6.00 to 7.00; in the experiment on MYB mRNA (setting [4]), 6.00 to 7.00. For the same compound, the concentration at half-maximal activity (AC50) in the experiment on HTT mRNA (RT-qPCR) and in the experiment with MYB mRNA (RT-qPCR) was 100 to 1000 nM throughout.
Turning to `Cn1cc2c(=O)n(-c3ccc4c(=O)n(C5CCNCC5)ccc4c3)ccc2n1` [Compound 530, 6-{2-methyl-4-oxopyrazolo[4,3-c]pyridin-5-yl}-2-(piperidin-4-yl)isoquinolin-1-one], the negative-log IC50 (pIC50) with HTT mRNA (setting [1]), with HTT mRNA (setting [2]), in the experiment on MYB mRNA (setting [3]) and in the experiment with MYB mRNA (setting [4]) was under 5.00 in each case. Also, the concentration at half-maximal activity (AC50) with HTT mRNA (RT-qPCR) and in the experiment on MYB mRNA (RT-qPCR) was over 10000 nM in each case.
As to `Cc1cn2nc(-c3ccc4c(=O)n(C5CCNCC5)ccc4c3)cc(CC(=O)O)c2n1` [Compound 531, 2-[2-methyl-6-[1-oxo-2-(4-piperidyl)-6-isoquinolyl]imidazo[1,2-b]pyridazin-8-yl]acetic acid], the negative logarithm of the IC50 (pIC50) was 6.00 to 7.00 with HTT mRNA (setting [1]), over 7.00 in the experiment with HTT mRNA (setting [2]), 6.00 to 7.00 in the experiment on MYB mRNA (setting [3]) and 6.00 to 7.00 in the experiment on MYB mRNA (setting [4]). Further, the concentration at half-maximal activity (AC50) in the experiment with HTT mRNA (RT-qPCR) was under 100 nM; in the experiment on MYB mRNA (RT-qPCR), 100 to 1000 nM.
With `Cc1cn2nc(-c3ccc4c(=O)n(C5CCNCC5)ccc4c3)cc(CCO)c2n1` [Compound 533, 6-[8-(2-hydroxyethyl)-2-methyl-imidazo[1,2-b]pyridazin-6-yl]-2-(4-piperidyl)isoquinolin-1-one], the pIC50 in the experiment on HTT mRNA (setting [1]), in the experiment on HTT mRNA (setting [2]), with MYB mRNA (setting [3]) and in the experiment on MYB mRNA (setting [4]) was 6.00 to 7.00 in each case. For the same compound, the AC50 in the experiment on HTT mRNA (RT-qPCR) and with MYB mRNA (RT-qPCR) was 100 to 1000 nM in each case.
As for `CNC(=O)Cc1cc(-c2ccc3c(=O)n(C4CCNCC4)ccc3c2)nn2cc(C)nc12` [Compound 534, N-methyl-2-[2-methyl-6-[1-oxo-2-(4-piperidyl)-6-isoquinolyl]imidazo[1,2-b]pyridazin-8-yl]acetamide], the pIC50 with HTT mRNA (setting [1]), with HTT mRNA (setting [2]), in the experiment with MYB mRNA (setting [3]) and with MYB mRNA (setting [4]) was 5.00 to 6.00 throughout. For the same compound, the AC50 in the experiment with HTT mRNA (RT-qPCR) and in the experiment with MYB mRNA (RT-qPCR) was 1000 to 10000 nM in each case.
On to `Cc1cn2nc(-c3ccc4c(=O)n(C5CCNCC5)ccc4c3)cc(Cc3nnc[nH]3)c2n1` [Compound 535, 6-[2-methyl-8-(4H-1,2,4-triazol-3-ylmethyl)imidazo[1,2-b]pyridazin-6-yl]-2-(4-piperidyl) isoquinolin-1-one], for which the pIC50 in the experiment on HTT mRNA (setting [1]), with HTT mRNA (setting [2]), with MYB mRNA (setting [3]) and in the experiment on MYB mRNA (setting [4]) was 5.00 to 6.00 throughout. The AC50 in the experiment with HTT mRNA (RT-qPCR) and in the experiment with MYB mRNA (RT-qPCR) was 1000 to 10000 nM each time.
For `Cc1cn2nc(-c3ccc4c(=O)n(C5CCNCC5)ccc4c3)cc(Cc3nnn[nH]3)c2n1` [Compound 536, 6-[2-methyl-8-(1H-tetrazol-5-ylmethyl)imidazo[1,2-b]pyridazin-6-yl]-2-(4-piperidyl) isoquinolin-1-one], the negative logarithm of the IC50 (pIC50) with HTT mRNA (setting [1]), in the experiment with HTT mRNA (setting [2]), in the experiment on MYB mRNA (setting [3]) and with MYB mRNA (setting [4]) was under 5.00 throughout. Also, the half-maximal activity concentration (AC50) in the experiment on HTT mRNA (RT-qPCR) and in the experiment on MYB mRNA (RT-qPCR) was over 10000 nM throughout.
Turning to `CCN1CCC(n2ncc3cc(-c4cc(C)c5nc(C)cn5n4)cc(F)c3c2=O)CC1` [Compound 537], the pIC50 was over 7.00 with HTT mRNA (setting [1]), over 7.00 in the experiment on HTT mRNA (setting [2]), 6.00 to 7.00 in the experiment with MYB mRNA (setting [3]) and 6.00 to 7.00 in the experiment on MYB mRNA (setting [4]). Also, the values for the AC50 with HTT mRNA (RT-qPCR) and in the experiment on MYB mRNA (RT-qPCR) were under 100 nM and 100 to 1000 nM, respectively.
Take `Cc1cn2nc(-c3cc(F)c4c(=O)n(C5CCN(CCF)CC5)ncc4c3)cc(C)c2n1` [Compound 538]: the negative logarithm of the IC50 (pIC50) with HTT mRNA (setting [1]) was over 7.00; with HTT mRNA (setting [2]) it was over 7.00; in the experiment with MYB mRNA (setting [3]), 6.00 to 7.00; in the experiment with MYB mRNA (setting [4]) it was 6.00 to 7.00. The concentration at half-maximal activity (AC50) in the experiment on HTT mRNA (RT-qPCR) is under 100 nM; with MYB mRNA (RT-qPCR) it was 100 to 1000 nM.
As to `Cc1cn2nc(-c3cc(F)c4c(=O)n(C5CCN(C)CC5)ncc4c3)cc(C)c2n1` [Compound 539], the negative-log IC50 (pIC50) in the experiment with HTT mRNA (setting [1]), in the experiment with HTT mRNA (setting [2]), in the experiment on MYB mRNA (setting [3]) and with MYB mRNA (setting [4]) was over 7.00 throughout. Further, the AC50 in the experiment with HTT mRNA (RT-qPCR) and in the experiment on MYB mRNA (RT-qPCR) was under 100 nM throughout.
For `Cc1cn2nc(-c3cc(F)c4c(=O)n(C5CCNCC5)ncc4c3)cc(C)c2n1` [Compound 540], the negative logarithm of the IC50 (pIC50) with HTT mRNA (setting [1]), in the experiment with HTT mRNA (setting [2]), with MYB mRNA (setting [3]) and in the experiment on MYB mRNA (setting [4]) was over 7.00 in each case. In addition, the AC50 in the experiment on HTT mRNA (RT-qPCR) and with MYB mRNA (RT-qPCR) was under 100 nM throughout.
Take `Cc1cn2nc(-c3cc(O)c4c(=O)n(C5CCNCC5)ncc4c3)cc(C)c2n1` [Compound 541]: the negative logarithm of the IC50 (pIC50) in the experiment with HTT mRNA (setting [1]), with HTT mRNA (setting [2]), in the experiment on MYB mRNA (setting [3]) and in the experiment on MYB mRNA (setting [4]) was over 7.00 in each case. The AC50 in the experiment with HTT mRNA (RT-qPCR) and in the experiment on MYB mRNA (RT-qPCR) was under 100 nM each time.

The pIC50 is −log10 of the IC50, conventionally taken in molar units. What is called AC50 is the midpoint of the concentration-response curve, whichever way the signal moves.
